Experimental findings from patent publication US20030104489A1, “Functional assay for agonist activation of receptors” (Pfizer Inc., priority 2001, published 2003) are described below.

The structures appear in SMILES notation.

The test concerns D3-G[…]15 cells. As to the kind of experiment: FLIPR assay of intracellular Ca2+ release in D3-Gα15 cells, effect of pre-incubation time at 37 °C (Table 2). The settings on record: for Ca2+ response (FLIPR signal), time at 37 °C: 5 min: 5 min pre-incubation at 37 °C; for Ca2+ response (FLIPR signal), time at 37 °C: 5 min / Ca2+ response (FLIPR signal), time at 37 °C: 15 min / % change (elevation of FLIPR signal, 5 min to 15 min pre-incubation at 37 °C): dopamine 100 nM; for Ca2+ response (FLIPR signal), time at 37 °C: 5 min / Ca2+ response (FLIPR signal), time at 37 °C: 15 min: (at or above EC90); for Ca2+ response (FLIPR signal), time at 37 °C: 15 min: 15 min pre-incubation at 37 °C; for % change (elevation of FLIPR signal, 5 min to 15 min pre-incubation at 37 °C): 15 min vs 5 min at 37 °C; for effect of prolonged preincubation at 37 °C on the induced Ca2+ response: ATP via endogenous purinergic receptors, ionomycin as ionophore. The class given is cell-based. Here is the method:
The HEK293-Gα15 cell line stably expressing the D3 receptor was used to develop Ca^2+-based assay using the FLIPR-based method. Cells were plated in a 96 or 384 well poly-D lysine-coated FLIPR plates for 16-24 hours before the assay. Cells were loaded with cell dye-media solution (media −11 ml, dye-4 μM Fluo-4 AM, Pluronic® acid 22 ul, probenecid −110 ul of 260 mM solution) for 1 hour at 37° C. The plates were washed in the Skatron Embla™ plate washer with assay buffer (NaCl—0.145M, Glucose—0.01 M, KCl—0.005M, MgSO4—0.001 M, HEPES—0.01 M and CaCl2—0.002M) and stabilized for 30 minutes at 25° C. and 37° C., respectively, before starting the experiment. Antagonists were added 15 minutes prior to the agonist addition. The fluorescence intensities were measured using the excitation and emission wavelengths of 488 nm and 520 nm respectively. Data are taken as the average +S.D. of four replicates.
[…]. The elevation of FLIPR signal (in percentage) in 5 min and 15 min pre-incubation at 37° C. is shown.

Regarding `Nc1ncnc2c1ncn2[C@@H]1O[C@H](COP(=O)(O)OP(=O)(O)OP(=O)(O)O)[C@@H](O)[C@H]1O` [ATP], the “Ca2+ response (FLIPR signal), time at 37 °C: 5 min” value (shortened to “Ca2+ response … at 37 °C: 5 min”) came out at 2859 ± 630; the “Ca2+ response (FLIPR signal), time at 37 °C: 15 min” value (shortened to “Ca2+ response … 15 min”) is given as 3346 ± 171; the “% change (elevation of FLIPR signal, 5 min to 15 min pre-incubation at 37 °C)” value (from here on “% change”) was 17%; the “effect of prolonged preincubation at 37 °C on the induced Ca2+ response” value was “not affected”.
With `NCCc1ccc(O)c(O)c1` [Dopamine, dopamine], the “Ca2+ response … at 37 °C: 5 min” value is listed as 157 ± 47; the “Ca2+ response … 15 min” value was found to be 550 ± 38; the “% change” value is 257%.
As to `C[C@H](CCC(=O)O)C[C@H](C)C[C@H](C)C(=O)/C=C(\O)[C@H](C)C[C@H](C)C/C=C/[C@@H](C)[C@@H](O)[C@@H](C)[C@@H](O)C[C@@H]1CC[C@@](C)([C@H]2CC[C@@](C)([C@@H](C)O)O2)O1` [ionomycin], the “Ca2+ response … at 37 °C: 5 min” value came to 8042 ± 652; the “Ca2+ response … 15 min” value was determined as 8465 ± 132; the “% change” value came out at 5%; the “effect of prolonged preincubation at 37 °C on the induced Ca2+ response” value is recorded as “not affected”.
